We go through 2 compounds from US20230365618A1, “CRYSTALLINE THIOCHOLESTEROL” (Durect Corporation, priority 2020, published 2023).

Series [1] concerns lipid biosynthesis; cholesterol secretion and degradation. As to conditions: shown previously; cited from earlier work.
Series [2] can be described thus: Dynamic vapor sorption/desorption (DVS). It is filed as physicochemical. To be noted: for hygroscopicity: DVS plot.
Series [3] can be described thus: Relative thermodynamic stability of the forms from crystal density, DSC melt onset and heat of fusion. It is filed as physicochemical. As to conditions: suggested by higher crystal density and melt onset (with higher heat of fusion). How it is done: A tau lag adjustment is performed with indium, tin, and zinc. […] The adjustment is then verified with octane, phenyl salicylate, indium, tin, and zinc. […] A weighed aluminum pan configured as the sample pan was placed on the […] side of the cell.

Turning to `CC(C)CCC[C@@H](C)[C@H]1CC[C@H]2[C@@H]3CC=C4C[C@@H](S)CC[C@]4(C)[C@H]3CC[C@]12C` [Thiocholesterol, (3 S,8S,9S,10R,13R,14S,17R)-17-[(1R)-1,5-dimethylhexyl]-10,13-dimethyl-2,3,4,7,8,9,11,12,14,15,16,17-dodecahydro-1H-cyclopenta[a] phenanthrene-3-thiol], in series [1], the “cholesterol secretion and degradation” value was “increases”; the lipid biosynthesis result is listed as “decreases”.
Regarding `CC(C)CCC[C@@H](C)[C@H]1CC[C@H]2[C@@H]3CC=C4C[C@@H](S)CC[C@]4(C)[C@H]3CC[C@]12C` [crystalline thiocholesterol Form A], in series [2] (5% to 95% RH, sorption and desorption, FIG. 6), the “weight change during the DVS cycle” value is 0.25%. Moreover, the hygroscopicity result is given as “low hygroscopicity” in series [2] (FIG. 6) and “non-hygroscopic” in series [2] (FIG. 6, listed as Crystalline thiocholesterol Form A). In series [2] (after DVS cycle 5% to 95% RH), the “solid form of material recovered from the DVS experiment (x-ray powder diffraction)” value is “identified as crystalline thiocholesterol Form A”. Moreover, in series [3], the “thermodynamic stability relative to another form” value was “more thermodynamically stable than Crystalline Thiocholesterol Form B”.
